How the values were obtained:
Test in all cases: NCI 60 cell line screen
OVCAR-3 = type: cell-based; conditions: OVCAR-3, Ovarian Cancer; single concentration 10^−5 M
Description: (§1) The cytotoxic activity of nortopsintin analogs (4a-4j) was determined by the national cancer institute (NCI, Bethesda, Maryland, USA) against 60 different cancer cell lines at a single concentration of (10^-5 M). For the determination of IC50 value, we used MTT assay kit (Sigma) according to the manufacturer's protocol. HCT-116 cells were seeded into a 96-well plate at a concentration of 20,000 cells/well. After 24 h, the media was aspirated and replaced with serum-free media containing serial dilutions of the 4i compound. […] The percentage of cytotoxicity was calculated using the following equation: % Cytotoxicity = [1 - ([…])] × 100.

UACC-62 = type: cell-based; conditions: UACC-62, Melanoma; single concentration 10^−5 M
Description: as §1

A498 = type: cell-based; conditions: A498, Renal Cancer; single concentration 10^−5 M
Description: as §1

MCF7 = type: cell-based; conditions: MCF7, Breast Cancer; single concentration 10^−5 M
Description: as §1

HCT-15 = type: cell-based; conditions: HCT-15, Colon Cancer; single concentration 10^−5 M
Description: as §1

BT-549 = type: cell-based; conditions: BT-549, Breast Cancer; single concentration 10^−5 M
Description: as §1

MDA-MB-468 = type: cell-based; conditions: MDA-MB-468, Breast Cancer; single concentration 10^−5 M
Description: as §1

PC-3 = type: cell-based; conditions: PC-3, Prostate Cancer; single concentration 10^−5 M
Description: as §1

OVCAR-8 = type: cell-based; conditions: OVCAR-8, Ovarian Cancer; single concentration 10^−5 M
Description: as §1

UACC-257 = type: cell-based; conditions: UACC-257, Melanoma; single concentration 10^−5 M
Description: as §1

NCI-H226 = type: cell-based; conditions: NCI-H226, Non-Small Cell Lung Cancer; single concentration 10^−5 M
Description: as §1

COLO205 = type: cell-based; conditions: COLO205, Colon Cancer; single concentration 10^−5 M
Description: as §1

M14 = type: cell-based; conditions: M14, Melanoma; single concentration 10^−5 M
Description: as §1

MDA-MB-231/ATCC = type: cell-based; conditions: Breast Cancer, single concentration 10^−5 M
Description: as §1

SK-OV-3 = type: cell-based; conditions: SK-OV-3, Ovarian Cancer; single concentration 10^−5 M
Description: as §1

U251 = type: cell-based; conditions: U251, CNS Cancer; single concentration 10^−5 M
Description: as §1

786-0 = type: cell-based; conditions: 786-0, Renal Cancer; single concentration 10^−5 M
Description: as §1

SK-MEL-5 = type: cell-based; conditions: SK-MEL-5, Melanoma; single concentration 10^−5 M
Description: as §1

MDA-MB-435 = type: cell-based; conditions: MDA-MB-435, Melanoma; single concentration 10^−5 M
Description: as §1

SNB-75 = type: cell-based; conditions: SNB-75, CNS Cancer; single concentration 10^−5 M
Description: as §1

OVCAR-4 = type: cell-based; conditions: OVCAR-4, Ovarian Cancer; single concentration 10^−5 M
Description: as §1

IGROV1 = type: cell-based; conditions: IGROV1, Ovarian Cancer; single concentration 10^−5 M
Description: as §1

EKVX = type: cell-based; conditions: Non-Small Cell Lung Cancer, single concentration 10^−5 M
Description: as §1

NCI-H23 = type: cell-based; conditions: NCI-H23, Non-Small Cell Lung Cancer; single concentration 10^−5 M
Description: as §1

HCC-2998 = type: cell-based; conditions: HCC-2998, Colon Cancer; single concentration 10^−5 M
Description: as §1

NCI/ADR-RES = type: cell-based; conditions: Ovarian Cancer, single concentration 10^−5 M
Description: as §1

CAKI-1 = type: cell-based; conditions: CAKI-1, Renal Cancer; single concentration 10^−5 M
Description: as §1

KM12 = type: cell-based; conditions: KM12, Colon Cancer; single concentration 10^−5 M
Description: as §1

HT29 = type: cell-based; conditions: HT29, Colon Cancer; single concentration 10^−5 M
Description: as §1

RXF 393 = type: cell-based; conditions: RXF 393, Renal Cancer; single concentration 10^−5 M
Description: as §1

RPMI-8226 = type: cell-based; conditions: RPMI-8226, Leukemia; single concentration 10^−5 M
Description: as §1

UO-31 = type: cell-based; conditions: UO-31, Renal Cancer; single concentration 10^−5 M
Description: as §1

A549/ATCC = type: cell-based; conditions: Non-Small Cell Lung Cancer, single concentration 10^−5 M
Description: as §1

SF-539 = type: cell-based; conditions: SF-539, CNS Cancer; single concentration 10^−5 M
Description: as §1

TK-10 = type: cell-based; conditions: TK-10, Renal Cancer; single concentration 10^−5 M
Description: as §1

HCT-116 = type: cell-based, human; conditions: HCT-116, Colon Cancer; single concentration 10^−5 M
Description: as §1

SMILES | Growth % (OVCAR-3) [%] | Growth % (UACC-62) [%] | Growth % (A498) [%] | Growth % (MCF7) [%] | Growth % (HCT-15) [%] | Growth % (BT-549) [%] | Growth % (MDA-MB-468) [%] | Growth % (PC-3) [%] | Growth % (OVCAR-8) [%] | Growth % (UACC-257) [%] | Growth % (NCI-H226) [%] | Growth % (COLO205) [%] | Growth % (M14) [%] | Growth % (MDA-MB-231/ATCC) [%] | Growth % (SK-OV-3) [%] | Growth % (U251) [%] | Growth % (786-0) [%] | Growth % (SK-MEL-5) [%] | Growth % (MDA-MB-435) [%] | Growth % (SNB-75) [%] | other results
N#Cc1c(-c2ccc(F)cc2)cc(-c2c[nH]c3ccccc23)nc1-c1c[nH]c2ccccc12 [4d] | 102.48 | 98.33 | 89.44 | 89.33 | 99.59 | 108.84 | 99.29 | 103.05 | 100.20 | 107.07 | 94.04 | 113.48 | 97.40 | 102.47 | 96.90 | 94.85 | 99.50 | 100.33 | 107.27 | 98.55 | Growth % (OVCAR-4): 101.04%; Growth % (IGROV1): 102.10%; Growth % (EKVX): 92.76%; Growth % (NCI-H23): 100.43%; Growth % (HCC-2998): 109.40%; Growth % (NCI/ADR-RES): 103.38%; Growth % (CAKI-1): 92.51%; Growth % (KM12): 100.66%; Growth % (HT29): 110.19%; Growth % (RXF 393): 111.59%; Growth % (RPMI-8226): 100.93%; Growth % (UO-31): 84.72%; Growth % (A549/ATCC): 101.42%; Growth % (SF-539): 100.06%; Growth % (TK-10): 127.59%; Growth % (HCT-116): 104.67%
COc1ccc(-c2cc(-c3c[nH]c4ccccc34)nc(-c3c[nH]c4ccccc34)c2C#N)cc1 [4e] | 96.29 | 95.53 | 108.69 | 90.48 | 89.77 | 97.48 | 102.09 | 89.91 | 98.49 | 107.78 | 92.14 | 102.89 | 93.75 | 102.65 | 94.59 | 102.14 | 102.90 | 97.12 | 104.98 | 97.63 | Growth % (OVCAR-4): 106.10%; Growth % (IGROV1): 85.18%; Growth % (EKVX): 91.11%; Growth % (NCI-H23): 103.56%; Growth % (HCC-2998): 128.75%; Growth % (NCI/ADR-RES): 108.38%; Growth % (CAKI-1): 84.47%; Growth % (KM12): 96.65%; Growth % (HT29): 105.49%; Growth % (RXF 393): 94.44%; Growth % (RPMI-8226): 104.41%; Growth % (UO-31): 74.78%; Growth % (A549/ATCC): 99.97%; Growth % (SF-539): 93.61%; Growth % (TK-10): 141.73%; Growth % (HCT-116): 106.07%
COc1cc(OC)cc(-c2cc(-c3c[nH]c4ccccc34)nc(-c3c[nH]c4ccccc34)c2C#N)c1 [4f] | 99.19 | 93.55 | 96.67 | 90.74 | 101.68 | 103.60 | 92.23 | 93.60 | 102.00 | 112.07 | 87.28 | 110.17 | 94.97 | 100.79 | 99.89 | 99.96 | 104.74 | 98.48 | 99.41 | 87.63 | Growth % (OVCAR-4): 101.53%; Growth % (IGROV1): 93.71%; Growth % (EKVX): 91.45%; Growth % (NCI-H23): 103.68%; Growth % (HCC-2998): 112.62%; Growth % (NCI/ADR-RES): 97.14%; Growth % (CAKI-1): 91.03%; Growth % (KM12): 98.72%; Growth % (HT29): 108.12%; Growth % (RXF 393): 107.63%; Growth % (RPMI-8226): 98.96%; Growth % (UO-31): 71.31%; Growth % (A549/ATCC): 98.51%; Growth % (SF-539): 94.25%; Growth % (TK-10): 124.45%; Growth % (HCT-116): 100.81%

From article PMC11530689, “Anti colorectal cancer activity and in silico studies of novel pyridine nortopsentin analog as cyclin dependent kinase 6 inhibitor” (Scientific Reports, 2024)
